From patent US12421276B2 (priority 2016, dated 2025)

How the values were obtained:
[1] = Plasma stability study, human plasma; type: in vitro ADME; settings: Human plasma, 1 μM, 37° C.
Method in brief: (§1)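 Compounds (1 μM, from 0.3 mM DMSO stock) incubated at 37° C in K2 EDTA plasma, quenched at time points with acetonitrile/methanol/formic acid plus internal standard, and analysed by LC/MS/MS. Disappearance measured relative to 0-min control; t½ derived from elimination rate constant of semi-log % remaining versus time regression.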

Caco-2 cells = assay: Caco-2 permeability study with or without P-gp inhibitor GF120918; settings: for Abs. Quotient: (Papp A-B with inhibitor − without inhibitor)/Papp A-B with inhibitor; for Caco-2 Cells Permeability Recovery Rate: 1 hr, pH 7.4
Method: Buffer=HBSS, pH 7.4 with 5 mM HEPES
Caco-2 cell plates were obtained commercially and were maintained for 21 days at 37° C. with 5% CO2. Cells were washed with Hank's Balanced Salt Solution (HBSS) 30 min before starting the experiment. Test compound solutions were prepared by diluting from DMSO stock into HBSS buffer in the presence or absence of 10 μM of P-gp inhibitor GF120918. The final DMSO concentration is 0.2%. Prior to each experiment, cell monolayer integrity was verified by transendothelial electrical resistance (TEER). Transport experiment was initiated by adding test compounds to the apical (75 μL) side. Transport plates were incubated at 37° C. in a humidified incubator with 5% CO2. Samples were taken from the donor and acceptor compartments after 1 hr and analyzed by liquid chromatography with tandem mass spectrometry (LC/MS/MS).
Apparent permeability (Papp) values were calculated using the following equation: Papp=(dQ/dt)/A/C0
where dQ/dt is the initial rate of amount of test compound transported across cell monolayer, A is the surface area of the filter membrane, and C0 is the initial concentration of the test compound. C0 is calculated for each condition using a 4-point calibration curve.
Absorption quotient between the two assay conditions was calculated by the following equation:
Absorption quotient (AQ)=(Papp, A-B with inhibitor−Papp, A-B without inhibitor)/Papp, A-B with inhibitor where Papp, A-B with inhibitor and Papp, A-B without inhibitor represent the apparent permeability of test compound from the apical to basal side of the cellular monolayer in the presence and absence of 10 μM P-gp inhibitor GF120918, respectively.
All samples were analyzed on LC/MS/MS using an AB Sciex API 4000 instrument, coupled to a Shimadzu LC-20AD LC Pump system. Analytical samples were separated using a Waters Atlantis T3 dC18 reverse phase HPLC column (10 mm×2.1 mm) at a flow rate of 0.5 mL/min. The mobile phase consisted of 0.1% formic acid in water (solvent A) and 0.1% formic acid in acetonitrile (solvent B).

[2] = Metabolic stability in simulated intestinal fluid (SIF), pH 6.8, with or without pancreatin; type: in vitro ADME; settings: 5 μM, 37° C.
Method in brief: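 Compounds at 5 μM incubated at 37 °C in freshly made SIF pH 6.8 (NaOH/NaH2PO4/NaCl), with or without 1% pancreatin. Remaining parent measured by LC/MS/MS against 0-min control; t½ derived from elimination rate constant (−slope) of semi-log % remaining vs time.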

[3] = Plasma stability study, rat plasma; type: in vitro ADME; settings: Rat plasma, 1 μM, 37° C.
Method in brief: as §1

[4] = Metabolic stability in simulated gastric fluid (SGF), pH 1.2, with or without pepsin; type: in vitro ADME; settings: 5 μM, 37° C.
Method in brief: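 Compound at 5 μM incubated at 37 °C in SGF (34.2 mM NaCl, pH 1.2) without or with 0.32% pepsin; acetonitrile/formic acid quench at time points, LC/MS/MS. Disappearance relative to 0-min; t½ from elimination rate constant of semi-log % remaining vs time.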

[5] = +GF120918 (10 μM), 10 μM compound

## CCCCCC(=O)NC(Cc1ccc(OC(=O)NCCN(C)C)cc1)C(=O)NC(C(=O)NCCCCCC(N)=O)C(C)CC (centres unmarked) [Compound A21]
[1]
  Plasma Stability Half-Life: 1.22 h
  Plasma Stability (% Parent Remaining) 0 min: 100%
  Plasma Stability (% Parent Remaining) 60 min: 59%
  Plasma Stability (% Parent Remaining) 120 min: 33%
  Plasma Stability (% Parent Remaining) 240 min: 11%
Caco-2 cells
  Abs. Quotient: 0.50
Caco-2 cells; [5]
  Caco-2 Cells Permeability Recovery Rate: 84%
Caco-2 cells; −GF120918, 10 μM compound
  Caco-2 Cells Permeability Recovery Rate: 84%
[2]; +Pancreatin (1%)
  SIF Stability (pH 6.8) Half-Life (min): 3006.4 min
  SIF Stability (pH 6.8) 0 min: 100%
  SIF Stability (pH 6.8) 60 min: 95%
  SIF Stability (pH 6.8) 120 min: 97%
  SIF Stability (pH 6.8) 240 min: 93%
[3]
  Plasma Stability Half-Life: 1.16 h
  Plasma Stability (% Parent Remaining) 0 min: 100%
  Plasma Stability (% Parent Remaining) 60 min: 61%
  Plasma Stability (% Parent Remaining) 120 min: 34%
  Plasma Stability (% Parent Remaining) 240 min: 9%
[4]; +Pepsin (0.32%)
  SGF Stability (pH 1.2) Half-Life (min): 265.1 min
  SGF Stability (pH 1.2) 0 min: 100%
  SGF Stability (pH 1.2) 60 min: 87%
  SGF Stability (pH 1.2) 120 min: 74%
  SGF Stability (pH 1.2) 240 min: 54%

## CCCCCC(=O)NC(Cc1ccc(OC(=O)N2CCN(C)CC2)cc1)C(=O)NC(C(=O)NCCCCCC(N)=O)C(C)CC (centres unmarked) [Compound A20]
[1]
  Plasma Stability Half-Life: 49.295 h
  Plasma Stability (% Parent Remaining) 0 min: 100%
  Plasma Stability (% Parent Remaining) 60 min: 83%
  Plasma Stability (% Parent Remaining) 120 min: 87%
  Plasma Stability (% Parent Remaining) 240 min: 90%
Caco-2 cells
  Abs. Quotient: 0.88
Caco-2 cells; [5]
  Caco-2 Cells Permeability Recovery Rate: 90%
Caco-2 cells; −GF120918, 10 μM compound
  Caco-2 Cells Permeability Recovery Rate: 71%
[2]; +Pancreatin (1%)
  SIF Stability (pH 6.8) Half-Life (min): 86.6 min
  SIF Stability (pH 6.8) 0 min: 100%
  SIF Stability (pH 6.8) 60 min: 62%
  SIF Stability (pH 6.8) 120 min: 54%
  SIF Stability (pH 6.8) 240 min: 61%
[2]; −Pancreatin
  SIF Stability (pH 6.8) Half-Life (min): 95.4 min
  SIF Stability (pH 6.8) 0 min: 100%
  SIF Stability (pH 6.8) 60 min: 65%
  SIF Stability (pH 6.8) 120 min: 57%
  SIF Stability (pH 6.8) 240 min: 51%
[3]
  Plasma Stability Half-Life: 2.617 h
  Plasma Stability (% Parent Remaining) 0 min: 100%
  Plasma Stability (% Parent Remaining) 60 min: 73%
  Plasma Stability (% Parent Remaining) 120 min: 56%
  Plasma Stability (% Parent Remaining) 240 min: 34%
[4]; +Pepsin (0.32%)
  SGF Stability (pH 1.2) Half-Life (min): 84.5 min
  SGF Stability (pH 1.2) 0 min: 100%
  SGF Stability (pH 1.2) 60 min: 57%
  SGF Stability (pH 1.2) 120 min: 37%
  SGF Stability (pH 1.2) 240 min: 26%
[4]; −Pepsin
  SGF Stability (pH 1.2) Half-Life (min): 116.5 min
  SGF Stability (pH 1.2) 0 min: 100%
  SGF Stability (pH 1.2) 60 min: 70%
  SGF Stability (pH 1.2) 120 min: 57%
  SGF Stability (pH 1.2) 240 min: 60%
